Measurements as given in ChEMBL document CHEMBL1136329, “A theoretical investigation on DPPH radical-scavenging mechanism of edaravone” (Bioorg Med Chem Lett, 2003).

Experiment: Scavenging activity against DPPH
Type: functional

IC50: 29.3 uM l-1
SMILES: CC1=NN(c2ccccc2)C(=O)C1 [EDARAVONE]
